IC50 data for 7 molecules are collected here from paper PMC11662536, “Targeting SARS-CoV-2 main protease: a comprehensive approach using advanced virtual screening, molecular dynamics, and in vitro validation” (Virology Journal, 2024).

pIC50: −log10 of the molar value. Where “and” joins values, the source holds several entries; their conditions need not be identical. Equal entries are not always repeated.

For this assay, the target named is SARS-CoV-2_WT Mpro (Severe acute respiratory syndrome coronavirus 2, UniProt P0DTD1). In words: biochemical. The note with it: 25 nM SARS-2 Mpro, 25 μM substrate, 30 min pre-incubation.
The pIC50 is the IC50 on a negative log10 scale, so that one unit is a factor of ten. Lower therefore signals a large IC50. As for `Oc1ccc2c(c1)oc1c(-c3ccc(O)c(O)c3)c3c(O)nn(C4CCCCC4)c3nc12` [ID11, Oc1ccc2c(c1)oc1c(-c3ccc(O)c(O)c3)c3c(O)nn(C4CCCCC4)c3nc12], the pIC50 was > 4.00 and 4.26.
Take `Oc1ccc(-c2c3oc4cc(O)ccc4c3nc3c2c(O)nn3C2CCCCCC2)cc1` [ID18, Oc1ccc(-c2c3oc4cc(O)ccc4c3nc3c2c(O)nn3C2CCCCCC2)cc1]: the negative-log IC50 (pIC50) is over 4.00.
`COc1cc(-c2c3oc4cc(O)ccc4c3nc3c2c(O)nn3C2CCCCC2)cc(O)c1O` [ID32, COc1cc(-c2c3oc4cc(O)ccc4c3nc3c2c(O)nn3C2CCCCC2)cc(O)c1O] had a pIC50 of over 4.00.
The molecule `COc1cc(-c2c3oc4cc(O)ccc4c3nc3c2c(O)nn3C2CCCCCCC2)cc(O)c1O` [ID41, COc1cc(-c2c3oc4cc(O)ccc4c3nc3c2c(O)nn3C2CCCCCCC2)cc(O)c1O] gave a pIC50 of over 4.00.
As for `Cc1c(O)ccc2c1oc1c(-c3ccc(O)c(O)c3)c3c(O)nn(C4CCCCC4)c3nc12` [ID20, Cc1c(O)ccc2c1oc1c(-c3ccc(O)c(O)c3)c3c(O)nn(C4CCCCC4)c3nc12], the negative logarithm of the IC50 (pIC50) is over 4.00.
In the case of `Oc1ccc(-c2c3oc4c(O)c(O)ccc4c3nc3c2c(O)nn3C2CCCCCC2)cc1O` [ID14, Oc1ccc(-c2c3oc4c(O)c(O)ccc4c3nc3c2c(O)nn3C2CCCCCC2)cc1O] it was over 4.00; in that of `Oc1ccc(-c2c3oc4c(O)c(O)ccc4c3nc3c2c(O)nn3C2CCCCC2)cc1Cl` [ID35, Oc1ccc(-c2c3oc4c(O)c(O)ccc4c3nc3c2c(O)nn3C2CCCCC2)cc1Cl], > 4.00 and 4.23.
